Holding throughout (format): functional
The subject of assay [1] is Staphylococcus aureus. Description: Minimum inhibitory concentration against Staphylococcus aureus.
The next assay has as its system Pasteurella multocida. The assay is described as follows: Minimum inhibitory concentration against Pasteurella multocida.
The subject of assay [2] is Staphylococcus aureus. The assay is described as follows: Colony forming units of Staphylococcus aureus intramammary infection (IMI) model was determined at a dose of 15 mg/kg.
Assay [3] deals with Staphylococcus aureus. The assay is described as follows: Effective dose required to inhibit Staphylococcus aureus intraperitoneal (IP) infection model.
The next assay deals with Escherichia coli. Description: Minimum inhibitory concentration against Escherichia coli.

Each structure is given as a SMILES string. In brackets after ≈: the same amount, converted by molar mass.

As to `CC[C@H]1OC(=O)[C@H](C)[C@H]2OC3(CCN(C(=O)c4ccnc5ccccc45)CC3)O[C@](C)(C[C@@H](C)CN(C)[C@H](C)[C@@H](O)[C@]1(C)O)[C@H](O[C@@H]1O[C@H](C)C[C@H](N(C)C)[C@H]1O)[C@H]2C`, the MIC in the assay with Staphylococcus aureus [1] turned out to be 0.39 µg/mL (≈ 0.472 µM); against Pasteurella multocida, 0.1 µg/mL (≈ 0.121 µM); in the assay with Escherichia coli it was 6.25 µg/mL (≈ 7.56 µM). Moreover, the “Log CFU” value with Staphylococcus aureus [2] came out at 2.5. In the assay on Staphylococcus aureus [3], this molecule returned an ED50 of 20 mg/kg.
In the same order, the values of `CC[C@H]1OC(=O)[C@H](C)[C@H]2OC3(CCN(C(=O)c4ccnc5ccccc45)CC3)O[C@](C)(C[C@@H](C)CN[C@H](C)[C@@H](O)[C@]1(C)O)[C@H](O[C@@H]1O[C@H](C)C[C@H](N(C)C)[C@H]1O)[C@H]2C` are 0.39 µg/mL (≈ 0.48 µM), 0.1 µg/mL (≈ 0.123 µM), 6.25 µg/mL (≈ 7.69 µM), 1.9 and 7.6 mg/kg.
The like results for `CC[C@H]1OC(=O)[C@H](C)[C@H]2OC3(CCN(CCc4ccc(OC)cc4)CC3)O[C@](C)(C[C@@H](C)CN(C)[C@H](C)[C@@H](O)[C@]1(C)O)[C@H](O[C@@H]1O[C@H](C)C[C@H](N(C)C)[C@H]1O)[C@H]2C` were, in that order, 0.39 µg/mL (≈ 0.484 µM), 0.03 µg/mL (≈ 0.0372 µM), 0.39 µg/mL (≈ 0.484 µM), 9.7 and more than 20 mg/kg.
In the same order, the values of `CC[C@H]1OC(=O)[C@H](C)[C@@H](O[C@H]2C[C@@](C)(OC)[C@@H](O)[C@H](C)O2)[C@H](C)[C@@H](O[C@@H]2O[C@H](C)C[C@H](N(C)C)[C@H]2O)[C@](C)(O)C[C@@H](C)CN(C)[C@H](C)[C@@H](O)[C@]1(C)O` [AZITHROMYCIN] are 0.2 µg/mL (≈ 0.267 µM), 0.1 µg/mL (≈ 0.134 µM), 1.56 µg/mL (≈ 2.08 µM), 2.8 and 4.1 mg/kg.
